Patent publication US9550754B2, “4,5-dihydropyrazole derivatives, pharmaceutical compositions containing them, and their use in therapy” (ABBVIE DEUTSCHLAND GMBH & CO. KG, priority 2014, dated 2017)

What follows are molecules tested against T1, human GlyT1c transporter (Homo sapiens, UniProt P48067) (assay: Radioligand binding assay using recombinant CHO cell membranes expressing human GlyT1). Conditions: apparent Ki, read-out: Kiapp (Inhibition of GlyT1 radioligand binding).
T1 construct: expressed in transfected cells; host or cells: recombinant CHO cells (membranes); the line hGlyT1c_5_CHO is named only for the uptake assay
T1 sequence (P48067 1-706): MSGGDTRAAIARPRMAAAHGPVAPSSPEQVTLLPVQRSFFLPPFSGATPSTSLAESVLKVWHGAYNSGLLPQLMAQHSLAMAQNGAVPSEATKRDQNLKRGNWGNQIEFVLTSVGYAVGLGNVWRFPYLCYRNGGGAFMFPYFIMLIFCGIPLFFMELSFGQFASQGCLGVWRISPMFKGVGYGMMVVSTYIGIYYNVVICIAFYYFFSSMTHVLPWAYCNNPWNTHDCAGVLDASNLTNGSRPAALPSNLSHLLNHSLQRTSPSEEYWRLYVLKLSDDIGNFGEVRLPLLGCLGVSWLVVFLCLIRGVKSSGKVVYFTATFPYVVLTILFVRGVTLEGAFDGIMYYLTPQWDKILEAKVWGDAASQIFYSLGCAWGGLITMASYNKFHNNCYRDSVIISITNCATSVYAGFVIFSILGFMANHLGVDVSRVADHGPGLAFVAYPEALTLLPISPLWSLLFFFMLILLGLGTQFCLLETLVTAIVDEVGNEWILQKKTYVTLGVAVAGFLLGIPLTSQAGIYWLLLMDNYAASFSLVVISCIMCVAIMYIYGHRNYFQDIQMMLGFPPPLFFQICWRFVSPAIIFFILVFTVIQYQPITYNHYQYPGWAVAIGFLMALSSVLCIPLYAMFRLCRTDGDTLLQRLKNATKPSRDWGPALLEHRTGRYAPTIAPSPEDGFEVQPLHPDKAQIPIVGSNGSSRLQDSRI
Procedure: 2. Radioligand Binding Assays Using Recombinant CHO Cell Membranes Expressing Human GlyT1:
Radioligand binding to human GlyT1c transporter-expressing membranes was carried out as described in Mezler et al., Molecular Pharmacology 74:1705-1715, 2008.

| Structure (SMILES) | Ki [µM] |
| --- | --- |
| Cn1cnc(S(=O)(=O)N2CC(c3ccccc3)C(c3cccc(OC(F)(F)F)c3)=N2)c1 (stereo not shown) [Example 13, 1-[(1-methyl-1H-imidazol-4-yl)sulfonyl]-4-phenyl-3-[3-(trifluoromethoxy)-phenyl]-4,5-dihydro-1H-pyrazole] | ≤ 0.1 |
| Cn1cc(S(=O)(=O)N2CC(c3ccccc3)C(c3cccc(OC(F)(F)F)c3)=N2)nn1 (stereo not shown) [Example 15, 1-methyl-4-({4-phenyl-3-[3-(trifluoromethoxy)phenyl]-4,5-dihydro-1H-pyrazol-1-yl}sulfonyl)-1H-1,2,3-triazole] | ≤ 0.1 |
| Cn1cc(S(=O)(=O)N2CC(c3cccc(C#N)c3)C(c3ccccc3)=N2)nn1 (stereo not shown) [Example 28, 3-{1-[(1-methyl-1H-1,2,3-triazol-4-yl)sulfonyl]-3-phenyl-4,5-dihydro-1H-pyrazol-4-yl}benzonitrile] | ≤ 1 |
| Cn1cc(S(=O)(=O)N2CC(c3ccc(F)cc3)C(c3cccc(C(F)(F)F)c3)=N2)cn1 (stereo not shown) [Example 10, 4-({4-(4-fluorophenyl)-3-[3-(trifluoromethyl)phenyl]-4,5-dihydro-1H-pyrazol-1-yl}sulfonyl)-1-methyl-1H-pyrazole] | ≤ 10 |
| Cn1cc(S(=O)(=O)N2CC(c3ccc(F)cc3)C(c3cccc(Cl)c3)=N2)nn1 (stereo not shown) [Example 6, 4-{[3-(3-chlorophenyl)-4-(4-fluorophenyl)-4,5-dihydro-1H-pyrazol-1-yl]sulfonyl}-1-methyl-1H-1,2,3-triazole] | ≤ 0.1 |
| Cn1cc(S(=O)(=O)N2CC(c3ccc(F)cc3)C(c3cccc(C(F)(F)F)c3)=N2)nn1 (stereo not shown) [Example 1, 4-({4-(4-fluorophenyl)-3-[3-(trifluoromethyl)phenyl]-4,5-dihydro-1H-pyrazol-1-yl}sulfonyl)-1-methyl-1H-1,2,3-triazole] | ≤ 10 |
| Cn1cnc(S(=O)(=O)N2CC(c3cccc(C#N)c3)C(c3ccccc3)=N2)c1 (stereo not shown) [Example 25, 3-{1-[(1-methyl-1H-imidazol-4-yl)sulfonyl]-3-phenyl-4,5-dihydro-1H-pyrazol-4-yl}benzonitrile] | ≤ 10 |
| Cn1cnc(S(=O)(=O)N2CC(c3ccc(F)cc3)C(c3ccccc3)=N2)c1 (stereo not shown) [Example 4, 4-(4-fluorophenyl)-1-[(1-methyl-1H-imidazol-4-yl)sulfonyl]-3-phenyl-4,5-dihydro-1H-pyrazole] | ≤ 1 |
| Cn1cnc(S(=O)(=O)N2CC(c3ccc(Cl)cc3)C(c3ccccc3)=N2)c1 (stereo not shown) [Example 24, 4-(4-chlorophenyl)-1-[(1-methyl-1H-imidazol-4-yl)sulfonyl]-3-phenyl-4,5-dihydro-1H-pyrazole] | ≤ 1 |
| Cn1cc(S(=O)(=O)N2CC(c3ccc(F)cc3)C(c3ccccc3)=N2)nn1 (stereo not shown) [Example 3, 4-{[4-(4-fluorophenyl)-3-phenyl-4,5-dihydro-1H-pyrazol-1-yl]sulfonyl}-1-methyl-1H-1,2,3-triazole] | ≤ 0.1 |
| Cn1cnc(S(=O)(=O)N2CC(c3cccc(Cl)c3)C(c3ccccc3)=N2)c1 (stereo not shown) [Example 30, 4-(3-chlorophenyl)-1-[(1-methyl-1H-imidazol-4-yl)sulfonyl]-3-phenyl-4,5-dihydro-1H-pyrazole] | ≤ 0.1 |
| Cn1cnc(S(=O)(=O)N2CC(c3ccc(F)cc3)C(c3cccc(C(F)(F)F)c3)=N2)c1 (stereo not shown) [Example 8, 4-(4-fluorophenyl)-1-[(1-methyl-1H-imidazol-4-yl)sulfonyl]-3-[3-(trifluoromethyl)phenyl]-4,5-dihydro-1H-pyrazole] | ≤ 0.1 |
| Cn1cnc(S(=O)(=O)N2CC(c3ccc(F)cc3)C(c3cccc(Cl)c3)=N2)c1 (stereo not shown) [Example 5, 3-(3-chlorophenyl)-4-(4-fluorophenyl)-1-[(1-methyl-1H-imidazol-4-yl)sulfonyl]-4,5-dihydro-1H-pyrazole] | ≤ 1 |
| Cn1cc(S(=O)(=O)N2CC(c3ccc(Cl)cc3)C(c3ccccc3)=N2)nn1 (stereo not shown) [Example 27, 4-{[4-(4-chlorophenyl)-3-phenyl-4,5-dihydro-1H-pyrazol-1-yl]sulfonyl}-1-methyl-1H-1,2,3-triazole] | ≤ 1 |
| CC(C)CC1=NN(S(=O)(=O)c2cn(C)cn2)CC1c1ccccc1 (stereo not shown) [Example 17, 1-[(1-methyl-1H-imidazol-4-yl)sulfonyl]-3-(2-methylpropyl)-4-phenyl-4,5-dihydro-1H-pyrazole] | ≤ 10 |

Results, then the molecule that gave them:

| Ki [µM] | Structure (SMILES) |
| --- | --- |
| ≤ 10 | Cn1cc(S(=O)(=O)N2CC(c3ccccc3)C(c3cccc(OC(F)(F)F)c3)=N2)cn1 (stereo not shown) [Example 14, 1-methyl-4-({4-phenyl-3-[3-(trifluoromethoxy)phenyl]-4,5-dihydro-1H-pyrazol-1-yl}sulfonyl)-1H-pyrazole] |
| ≥ 10 | Cn1cc(S(=O)(=O)N2CC(c3ccccc3)C(c3ccccn3)=N2)cn1 (stereo not shown) [Example 19, 2-{1-[(1-methyl-1H-pyrazol-4-yl)sulfonyl]-4-phenyl-4,5-dihydro-1H-pyrazol-3-yl}pyridine] |
| ≤ 10 | Cn1cnc(S(=O)(=O)N2CC(c3ccccc3)C(c3ccccn3)=N2)c1 (stereo not shown) [Example 18, 2-{1-[(1-methyl-1H-imidazol-4-yl)sulfonyl]-4-phenyl-4,5-dihydro-1H-pyrazol-3-yl}pyridine] |
| ≤ 10 | Cn1cnc(S(=O)(=O)N2CC(c3ccccc3)C(c3ccc(Cl)cc3)=N2)c1 (single isomer, unassigned) [Example 16b, 3-(4-chlorophenyl)-1-[(1-methyl-1H-imidazol-4-yl)sulfonyl]-4-phenyl-4,5-dihydro-1H-pyrazole] |
| ≥ 10 | Cn1cc(S(=O)(=O)N2CC(c3ccc(F)cc3)C(c3ccccc3)=N2)cn1 (stereo not shown) [Example 9, 4-{[4-(4-fluorophenyl)-3-phenyl-4,5-dihydro-1H-pyrazol-1-yl]sulfonyl}-1-methyl-1H-pyrazole] |
| ≤ 10 | Cn1cc(S(=O)(=O)N2CC(c3ccccc3)C(c3ccc(Cl)cc3)=N2)cn1 (stereo not shown) [Example 11, 4-{[3-(4-chlorophenyl)-4-phenyl-4,5-dihydro-1H-pyrazol-1-yl]sulfonyl}-1-methyl-1H-pyrazole] |
| ≤ 10 | Cn1cnc(S(=O)(=O)N2CC(c3ccccc3)C(c3cc(C(F)(F)F)ccn3)=N2)c1 (stereo not shown) [Example 21, 2-{1-[(1-methyl-1H-imidazol-4-yl)sulfonyl]-4-phenyl-4,5-dihydro-1H-pyrazol-3-yl}-4-(trifluoromethyl)pyridine] |
| ≤ 0.01 | Cn1cc(S(=O)(=O)N2CC(c3ccc(F)cc3)C(c3cccc(Cl)c3)=N2)cn1 (stereo not shown) [Example 7, 4-{[3-(3-chlorophenyl)-4-(4-fluorophenyl)-4,5-dihydro-1H-pyrazol-1-yl]sulfonyl}-1-methyl-1H-pyrazole] |
| ≤ 10 | Cn1cc(S(=O)(=O)N2CC(c3ccccc3)C(c3cc(C(F)(F)F)ccn3)=N2)nn1 (stereo not shown) [Example 23, 2-{1-[(1-methyl-1H-1,2,3-triazol-4-yl)sulfonyl]-4-phenyl-4,5-dihydro-1H-pyrazol-3-yl}-4-(trifluoromethyl)pyridine] |
| ≤ 10 | Cn1cc(S(=O)(=O)N2CC(c3ccc(Cl)cc3)C(c3ccccc3)=N2)cn1 (stereo not shown) [Example 26, 4-{[4-(4-chlorophenyl)-3-phenyl-4,5-dihydro-1H-pyrazol-1-yl]sulfonyl}-1-methyl-1H-pyrazole] |
| ≤ 10 | Cn1cc(S(=O)(=O)N2CC(c3ccccc3)C(c3ccccn3)=N2)nn1 (stereo not shown) [Example 20, 2-{1-[(1-methyl-1H-1,2,3-triazol-4-yl)sulfonyl]-4-phenyl-4,5-dihydro-1H-pyrazol-3-yl}pyridine] |
| ≤ 0.1 | Cn1cnc(S(=O)(=O)N2CC(c3ccccc3)C(c3ccc(Cl)cc3)=N2)c1 (stereo not shown) [Example 2, 3-(4-chlorophenyl)-1-[(1-methyl-1H-imidazol-4-yl)sulfonyl]-4-phenyl-4,5-dihydro-1H-pyrazole] |
| ≤ 10 | Cn1cc(S(=O)(=O)N2CC(c3cccc(Cl)c3)C(c3ccccc3)=N2)cn1 (stereo not shown) [Example 29, 4-{[4-(3-chlorophenyl)-3-phenyl-4,5-dihydro-1H-pyrazol-1-yl]sulfonyl}-1-methyl-1H-pyrazole] |
| ≤ 10 | Cn1cc(S(=O)(=O)N2CC(c3ccccc3)C(c3cc(C(F)(F)F)ccn3)=N2)cn1 (stereo not shown) [Example 22, 2-{1-[(1-methyl-1H-pyrazol-4-yl)sulfonyl]-4-phenyl-4,5-dihydro-1H-pyrazol-3-yl}-4-(trifluoromethyl)pyridine] |
| ≤ 0.01 | Cn1cc(S(=O)(=O)N2CC(c3ccccc3)C(c3ccc(Cl)cc3)=N2)nn1 (stereo not shown) [Example 12, 4-{[3-(4-chlorophenyl)-4-phenyl-4,5-dihydro-1H-pyrazol-1-yl]sulfonyl}-1-methyl-1H-1,2,3-triazole] |
| ≤ 0.01 | Cn1cnc(S(=O)(=O)N2CC(c3ccccc3)C(c3ccc(Cl)cc3)=N2)c1 (single isomer, unassigned) [Example 16a, 3-(4-chlorophenyl)-1-[(1-methyl-1H-imidazol-4-yl)sulfonyl]-4-phenyl-4,5-dihydro-1H-pyrazole] |
